According to US7550456B2, “Substituted aryl cycloalkanoyl derivatives and methods of their use” (Wyeth, priority 2003, dated 2009):
pEC50: −log10 of the molar value. Counter-ions that a name gives are not always drawn.

Each compound was assayed against T1, human hNET (Homo sapiens, UniProt P23975) (assay: Norepinephrine (NE) uptake assay in MDCK-Net6 cells). Details: 1 μM test compound, [3H]NE uptake, read-out: % Inhibition @ 1 μM (hNET).
T1 construct: expressed in transfected cells; host or cells: MDCK-Net6 (MDCK cells, stably transfected)
T1 sequence (P23975 whole entry): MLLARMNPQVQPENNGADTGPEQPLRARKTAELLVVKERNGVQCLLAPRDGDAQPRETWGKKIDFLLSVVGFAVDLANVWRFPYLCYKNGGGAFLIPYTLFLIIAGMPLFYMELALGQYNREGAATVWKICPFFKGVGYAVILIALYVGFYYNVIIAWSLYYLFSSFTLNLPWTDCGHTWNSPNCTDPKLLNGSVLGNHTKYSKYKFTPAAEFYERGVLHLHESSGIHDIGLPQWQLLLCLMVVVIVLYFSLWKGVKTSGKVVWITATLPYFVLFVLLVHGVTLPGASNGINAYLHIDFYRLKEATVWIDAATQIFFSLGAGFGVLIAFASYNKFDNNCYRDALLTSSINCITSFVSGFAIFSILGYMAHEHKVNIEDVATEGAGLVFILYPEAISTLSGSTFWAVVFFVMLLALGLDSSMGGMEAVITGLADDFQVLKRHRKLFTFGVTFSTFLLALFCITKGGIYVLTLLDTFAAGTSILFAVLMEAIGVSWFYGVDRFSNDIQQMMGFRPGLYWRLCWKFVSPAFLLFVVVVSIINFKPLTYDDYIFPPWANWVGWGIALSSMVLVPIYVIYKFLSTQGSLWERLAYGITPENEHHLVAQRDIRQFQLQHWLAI
Type: cell-based
Outline: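 Radiolabelled NE uptake was counted by scintillation after NaOH lysis, with 1 µM desipramine defining non-specific uptake. EC50 came from a logistic dose-response fit.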

Q: For `CC(C)COc1ccc(C(CN2CCNCC2)C2(O)CCCCC2)cc1OC(F)(F)F` (centres unmarked) [Example 406, 1-{1-[4-isobutoxy-3-(trifluoromethoxy)phenyl]-2-piperazin-1-ylethyl}cyclohexanol dihydrochloride], which inhibition at 1 µM is on record?
A: Its inhibition at 1 µM is 22%.

Q: How did the inhibition at 1 µM turn out when `C[C@H](Oc1ccc(C(CN2CCN(C)CC2)C2(O)CCCCC2)cc1)c1ccccc1` (stereo partly drawn) [Example 470, 1-(2-(4-methylpiperazin-1-yl)-1-{4-[(1S)-1-phenylethoxy]phenyl}ethyl)cyclohexanol dihydrochloride] was run?
A: The inhibition at 1 µM was 14%.

Q: How did the inhibition at 1 µM turn out when `OC1(C(CN2CCNCC2)c2ccc(-c3ccccc3F)cc2)CCCCC1` (centres unmarked) [Example 289, 1-[1-(2′-fluoro-1,1′-biphenyl-4-yl)-2-piperazin-1-ylethyl]cyclohexanol dihydrochloride] was run?
A: Its inhibition at 1 µM is 34%.

Q: For `OC1(C(CN2CCNCC2)c2ccccc2-c2ccc3c(c2)OCO3)CCCCC1` (centres unmarked) [Example 151, 1-{1-[2-(1,3-benzodioxol-5-yl)phenyl]-2-piperazin-1-ylethyl}cyclohexanol dihydrochloride], which inhibition at 1 µM is on record?
A: Its inhibition at 1 µM is 12%.

Q: Which inhibition at 1 µM does the source give for `OC1(C(CN2CCNCC2)c2ccccc2-c2cccc(Cl)c2)CCCCC1` (centres unmarked) [Example 150, 1-[1-(3′-chloro-1,1′-biphenyl-2-yl)-2-piperazin-1-ylethyl]cyclohexanol dihydrochloride] here?
A: The inhibition at 1 µM was 18%.

Q: How did the inhibition at 1 µM turn out when `CC#Cc1cccc(C(CN2CCN(C)CC2)C2(O)CCCCC2)c1` (centres unmarked) [Example 301, 1-[2-(4-methylpiperazin-1-yl)-1-(3-prop-1-ynylphenyl)ethyl]cyclohexanol dihydrochloride] was run?
A: Its inhibition at 1 µM is 23%.

Q: `OC1([C@@H](CN2CCNCC2)c2ccc(OCc3ccccc3)c(Cl)c2)CCCCC1` [Example 323, 1-{(1R)-1-[4-(benzyloxy)-3-chlorophenyl]-2-piperazin-1-ylethyl}cyclohexanol dihydrochloride] was tested. Which inhibition at 1 µM did it give?
A: Its inhibition at 1 µM is 95.8%.

Q: With `CC[C@H]1CN(C[C@H](c2cccc(OC(F)(F)F)c2)C2(O)CCCCC2)CCN1C` [Example 351, 1-{(1S)-2-[(3S)-3-ethyl-4-methylpiperazin-1-yl]-1-[3-(trifluoromethoxy)phenyl]ethyl}cyclohexanol dihydrochloride] as the compound, how does the inhibition at 1 µM read?
A: The inhibition at 1 µM was 61%.

Q: Which inhibition at 1 µM does the source give for `C[C@@H]1CN(C[C@H](c2cccc(OC(F)(F)F)c2)C2(O)CCCCC2)CCN1` [Example 369, 1-{(1S)-2-[(3R)-3-methylpiperazin-1-yl]-1-[3-(trifluoromethoxy)phenyl]ethyl}cyclohexanol dihydrochloride] here?
A: The inhibition at 1 µM was 90%.

Q: For `C#Cc1cccc(C(CN2CCN(C)CC2)C2(O)CCCCC2)c1` (centres unmarked) [Example 299, 1-[1-(3-ethynylphenyl)-2-(4-methylpiperazin-1-yl)ethyl]cyclohexanol dihydrochloride], which inhibition at 1 µM is on record?
A: Its inhibition at 1 µM is 95%.

Q: How did the inhibition at 1 µM turn out when `COc1ccc(C(CN2CCNCC2)C2(O)CCCCC2)cc1-c1ccc(Cl)c(Cl)c1` (centres unmarked) [Example 252, 1-[1-(3′,4′-dichloro-6-methoxy-1,1′-biphenyl-3-yl)-2-piperazin-1-ylethyl]cyclohexanol dihydrochloride] was run?
A: The inhibition at 1 µM was 35%.

Q: With `N#Cc1cccc(-c2ccc(C(CN3CCNCC3)C3(O)CCCCC3)cc2)c1` (centres unmarked) [Example 168, 1-[1-(3′-cyano-1,1′-biphenyl-4-yl)-2-piperazin-1-ylethyl]cyclohexanol dihydrochloride] as the compound, how does the inhibition at 1 µM read?
A: Its inhibition at 1 µM is 66%.

Q: Which inhibition at 1 µM does the source give for `OC1(C(CN2CCNCC2)c2ccc(-c3cccc(Cl)c3)cc2)CCCCC1` (centres unmarked) [Example 167, 1-[1-(3′-chloro-1,1′-biphenyl-4-yl)-2-piperazin-1-ylethyl]cyclohexanol dihydrochloride] here?
A: Its inhibition at 1 µM is 25%.

Q: `CN1CCN(CC(c2ccc(OCCc3ccccc3)c(Cl)c2)C2(O)CCCCC2)CC1` (centres unmarked) [Example 453, 1-[1-[3-chloro-4-(2-phenylethoxy)phenyl]-2-(4-methylpiperazin-1-yl)ethyl]cyclohexanol dihydrochloride] was tested. Which inhibition at 1 µM did it give?
A: Its inhibition at 1 µM is 82%.

Q: For `CC(C)COc1ccc(C(CN2CCN(C)CC2)C2(O)CCCCC2)cc1OC(F)(F)F` (centres unmarked) [Example 407, 1-[1-[4-isobutoxy-3-(trifluoromethoxy)phenyl]-2-(4-methylpiperazin-1-yl)ethyl]cyclohexanol dihydrochloride], which inhibition at 1 µM is on record?
A: Its inhibition at 1 µM is 12%.

Q: For `OC1(C(CN2CCNCC2)c2cccc(-c3ccc(C(F)(F)F)cc3)c2)CCCCC1` (centres unmarked) [Example 249, 1-{2-piperazin-1-yl-1-[4′-(trifluoromethyl)-1,1′-biphenyl-3-yl]ethyl}cyclohexanol dihydrochloride], which inhibition at 1 µM is on record?
A: Its inhibition at 1 µM is 32%.

Q: For `CC(CCN1CCN(C[C@H](c2cccc(OC(F)(F)F)c2)C2(O)CCCCC2)CC1)c1ccccc1` (stereo partly drawn) [Example 347, 1-{(1S)-2-[4-(3-phenylbutyl)piperazin-1-yl]-1-[3-(trifluoromethoxy)phenyl]ethyl}cyclohexanol dihydrochloride], which inhibition at 1 µM is on record?
A: Its inhibition at 1 µM is 92%.

Q: For `CN1CCN(CC(c2ccc(OCc3ccc(C(F)(F)F)cc3)c(Cl)c2)C2(O)CCCCC2)CC1` (centres unmarked) [Example 420, 1-[1-(3-chloro-4-{[4-(trifluoromethyl)benzyl]oxy}phenyl)-2-(4-methylpiperazin-1-yl)ethyl]cyclohexanol dihydrochloride], which inhibition at 1 µM is on record?
A: The inhibition at 1 µM was 68%.

Q: Which inhibition at 1 µM does the source give for `OC1(C(CN2CCNCC2)c2ccc(OC(F)(F)F)cc2)CCC1` (centres unmarked) [Example 304, 1-{2-piperazin-1-yl-1-[4-(trifluoromethoxy)phenyl]ethyl}cyclobutanol dihydrochloride] here?
A: The inhibition at 1 µM was 41%.

Q: How did the inhibition at 1 µM turn out when `C=Cc1ccc(C(CN2CCNCC2)C2(O)CCCCC2)cc1` (centres unmarked) [Example 163, 1-[2-piperazin-1-yl-1-(4-vinylphenyl)ethyl]cyclohexanol dihydrochloride] was run?
A: Its inhibition at 1 µM is 17%.

Q: Which inhibition at 1 µM does the source give for `COc1cccc(-c2cccc(C(CN3CCNCC3)C3(O)CCCCC3)c2)c1` (centres unmarked) [Example 138, 1-[1-(3′-methoxy-1,1′-biphenyl-3-yl)-2-piperazin-1-ylethyl]cyclohexanol dihydrochloride] here?
A: The inhibition at 1 µM was 44%.

Q: `OC1(C(CN2CCNCC2)c2ccc(-c3cccc(Cl)c3)cc2)CCC1` (centres unmarked) [Example 182, 1-[1-(3′-chloro-1,1′-biphenyl-4-yl)-2-piperazin-1-ylethyl]cyclobutanol dihydrochloride] was tested. Which inhibition at 1 µM did it give?
A: Its inhibition at 1 µM is 43%.

Q: How did the inhibition at 1 µM turn out when `COc1cccc(COc2ccc(C(CN3CCN(C)CC3)C3(O)CCCCC3)cc2Cl)c1` (centres unmarked) [Example 455, 1-[1-{3-chloro-4-[(3-methoxybenzyl)oxy]phenyl}-2-(4-methylpiperazin-1-yl)ethyl]cyclohexanol dihydrochloride] was run?
A: The inhibition at 1 µM was 99%.

Q: For `COc1cc(C(CN2CCN(C)CC2)C2(O)CCCCC2)cc(Br)c1OCc1ccccc1` (centres unmarked) [Example 391, 1-[1-[4-(benzyloxy)-3-bromo-5-methoxyphenyl]-2-(4-methylpiperazin-1-yl)ethyl]cyclohexanol dihydrochloride], which inhibition at 1 µM is on record?
A: Its inhibition at 1 µM is 30%.

Q: `COc1cccc(-c2ccc(C(CN3CCN(C)CC3)C3(O)CCCCC3)cc2)c1` (centres unmarked) [Example 179, 1-[1-(3′-methoxy-1,1′-biphenyl-4-yl)-2-(4-methylpiperazin-1-yl)ethyl]cyclohexanol dihydrochloride] was tested. Which inhibition at 1 µM did it give?
A: Its inhibition at 1 µM is 27%.

Q: Which inhibition at 1 µM does the source give for `OC1(C(CN2CCNCC2)c2ccc(-c3cccc(OC(F)(F)F)c3)cc2)CCCCC1` (centres unmarked) [Example 171, 1-{2-piperazin-1-yl-1-[3′-(trifluoromethoxy)-1,1′-biphenyl-4-yl]ethyl}cyclohexanol dihydrochloride] here?
A: Its inhibition at 1 µM is 32%.

Q: How did the inhibition at 1 µM turn out when `CN1CCN(CC(c2ccc(-c3ccc(F)cc3)cc2)C2(O)CCCCC2)CC1` (centres unmarked) [Example 180, 1-[1-(4′-fluoro-1,1′-biphenyl-4-yl)-2-(4-methylpiperazin-1-yl)ethyl]cyclohexanol dihydrochloride] was run?
A: The inhibition at 1 µM was 47%.

Q: With `OC1(C(CN2CCNCC2)c2ccc(OCc3ccc(Br)cc3F)c(Cl)c2)CCCCC1` (centres unmarked) [Example 425, 1-(1-{4-[(4-bromo-2-fluorobenzyl)oxy]-3-chlorophenyl}-2-piperazin-1-ylethyl)cyclohexanol dihydrochloride] as the compound, how does the inhibition at 1 µM read?
A: The inhibition at 1 µM was 80%.

Q: `NC1CCN(CC(c2cccc(-c3ccc(Cl)c(Cl)c3)c2)C2(O)CCCCC2)CC1` (centres unmarked) [Example 152, 1-[2-(4-aminopiperidin-1-yl)-1-(3′,4′-dichloro-1,1′-biphenyl-3-yl)ethyl]cyclohexanol dihydrochloride] was tested. Which inhibition at 1 µM did it give?
A: Its inhibition at 1 µM is 1%.

Q: With `Cc1ccc(COc2ccc(C(CN3CCNCC3)C3(O)CCCCC3)cc2F)cc1` (centres unmarked) [Example 417, 1-(1-{3-fluoro-4-[(4-methylbenzyl)oxy]phenyl}-2-piperazin-1-ylethyl)cyclohexanol dihydrochloride] as the compound, how does the inhibition at 1 µM read?
A: The inhibition at 1 µM was 78%.

Q: Which inhibition at 1 µM does the source give for `OC1(C(CN2CCNCC2)c2ccc(OCc3ccccc3)c(F)c2)CCCCC1` (centres unmarked) [Example 413, 1-{1-[4-(benzyloxy)-3-fluorophenyl]-2-piperazin-1-ylethyl}cyclohexanol dihydrochloride] here?
A: The inhibition at 1 µM was 76%.

Q: `CN1CCN(CC(c2ccc(OCc3ccccc3C(F)(F)F)cc2)C2(O)CCCCC2)CC1` (centres unmarked) [Example 441, 1-[2-(4-methylpiperazin-1-yl)-1-(4-{[2-(trifluoromethyl)benzyl]oxy}phenyl)ethyl]cyclohexanol dihydrochloride] was tested. Which inhibition at 1 µM did it give?
A: Its inhibition at 1 µM is 33%.

Q: `CC#Cc1ccc(C(CN2CCNCC2)C2(O)CCCCC2)cc1` (centres unmarked) [Example 164, 1-[2-piperazin-1-yl-1-(4-prop-1-ynylphenyl)ethyl]cyclohexanol dihydrochloride] was tested. Which inhibition at 1 µM did it give?
A: Its inhibition at 1 µM is 56%.

Q: For `OC1(C(CN2CCNCC2)c2ccc(-c3ccccc3)cc2)CCCCC1` (centres unmarked) [Example 157, 1-[1-(1,1′-biphenyl-4-yl)-2-piperazin-1-ylethyl]cyclohexanol dihydrochloride], which inhibition at 1 µM is on record?
A: Its inhibition at 1 µM is 54%.

Same assay, conditions: MDCK-Net6, read-out: % Inhibition @ 1 μM (hNET), 1 μM test compound, [3H]NE uptake

Q: For `CN1CCN(C[C@@H](c2cccc(OC(F)(F)F)c2)C2(O)CCCCC2)CC1` [Example 246, 1-{(1R)-2-(4-methylpiperazin-1-yl)-1-[3-(trifluoromethoxy)phenyl]ethyl}cyclohexanol dihydrochloride], which inhibition at 1 µM is on record?
A: The inhibition at 1 µM was 7.4%.

Q: For `OC1(C(CN2CCNCC2)c2cccc(-c3ccccc3F)c2)CCCCC1` (centres unmarked) [Example 140, 1-[1-(2′-fluoro-1,1′-biphenyl-3-yl)-2-piperazin-1-ylethyl]cyclohexanol maleate], which inhibition at 1 µM is on record?
A: Its inhibition at 1 µM is 52%.

Same assay, conditions: [3H]NE uptake, test range 1 to 10,000 nM

Q: With `N#Cc1cccc(-c2ccc(C(CN3CCNCC3)C3(O)CCCCC3)cc2)c1` (centres unmarked) [Example 168, 1-[1-(3′-cyano-1,1′-biphenyl-4-yl)-2-piperazin-1-ylethyl]cyclohexanol dihydrochloride] as the compound, how does the pEC50 read?
A: The pEC50 was 6.74.

Q: How did the pEC50 turn out when `OC1(C(CN2CCNCC2)c2cccc(-c3ccccc3F)c2)CCCCC1` (centres unmarked) [Example 140, 1-[1-(2′-fluoro-1,1′-biphenyl-3-yl)-2-piperazin-1-ylethyl]cyclohexanol maleate] was run?
A: Its pEC50 is 6.06.
